# Target: T1, SARM1 SAM-TIR (Homo sapiens, UniProt Q6SZW1)
# T1 construct: a fragment of the SARM1 molecule encompassing the SAM and TIR domains; tandem Strep-tag II (WSHPQFEK twice, with Gly/Ser linkers); made in house; host or cells: NRK1-HEK293T cells (transient transfection; crude lysate supernatant used, not purified)
# T1 sequence (Q6SZW1 409-724 limits assumed): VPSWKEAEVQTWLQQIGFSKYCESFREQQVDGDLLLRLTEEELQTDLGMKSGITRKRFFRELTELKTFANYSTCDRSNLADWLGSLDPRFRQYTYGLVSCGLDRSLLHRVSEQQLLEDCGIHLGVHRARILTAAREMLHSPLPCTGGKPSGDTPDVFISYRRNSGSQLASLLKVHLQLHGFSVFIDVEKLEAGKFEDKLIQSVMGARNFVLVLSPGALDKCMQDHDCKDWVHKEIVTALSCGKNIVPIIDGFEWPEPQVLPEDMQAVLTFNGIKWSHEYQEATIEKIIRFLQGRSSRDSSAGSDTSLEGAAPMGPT
# Test: SAM-TIR SARM1 IC50 assay (NADase activity, NAD+ cleavage, RapidFire MS readout)
# Type: biochemical
# Conditions: not given
# Experimental: This Example describes an assay of SAM-TIR NADase activity and use of this assay to measure the efficacy of compounds of Formula I to block SARM1 mediated NAD+ cleavage. This assay is optimized in such a way as to characterize the efficacy of the compounds in Formula I to inhibit SARM1 activity and to calculate an IC50 value for each compound. This assay makes use of a fragment of the SARM1 molecule encompassing the SAM and TIR domains.
# NRK1-HEK293T cells were seeded onto 150 cm^2 plates at 20×10^6 cells per plate. The next day, the cells were transfected with 15 μg FCIV-SST (SAM-TIR expression plasmid, SEQ ID NO: 1) using X-TREMEGENE™ 9 DNA Transfection Reagent (Roche product #06365787001).
# The cultures were supplemented with 1 mM NR at time of transfection to minimize toxicity from SAM-TIR overexpression. Forty-eight hours after transfection, cells were harvested, pelleted by centrifugation at 1,000 rpm (Sorvall ST 16R centrifuge, Thermo Fisher), and washed once with cold PBS (0.01 M phosphate buffered saline NaCl 0.138 M; KCl 0.0027 M; pH 7.4). The cells were resuspended in PBS with protease inhibitors (cOmplete™ protease inhibitor cocktail, Roche product #11873580001) and cell lysates were prepared by sonication (Branson Sonifer 450, output=3, 20 episodes of stroke). The lysates were centrifuged (12,000×g for 10 min at 4° C.) to remove cell debris and the supernatants (containing SARM1 SAM-TIR protein) were stored at −80° C. for later use in the in vitro SARM1 SAM-TIR NADase assay (see below). Protein concentration was determined by the Bicinchoninic (BCA) method and used to normalize lysate concentrations.
# The enzymatic assay was performed in a 384-well polypropylene plate in Dulbecco's PBS buffer in a final assay volume of 20 μL. SAM-TIR lysate with a final concentration of 5 μg/mL was pre-incubated with the respective compound at 1% DMSO final assay concentration over 2 h at room temperature. The reaction was initiated by addition of 5 μM final assay concentration of NAD+ as substrate. After a 2 hr room temperature incubation, the reaction was terminated with 40 μL of stop solution of 7.5% trichloroactetic acid in acetonitrile. The NAD+ and ADPR concentrations were analyzed by a RapidFire High Throughput Mass Spectrometry System (Agilent Technologies, Santa Clara, CA) using an API4000 triple quadrupole mass spectrometer (AB Sciex Framingham, Mass.).
row,SMILES,IC50 [nM]
1,CS(=O)(=O)N1C2CCC1C(n1sc(Nc3c(Cl)ccc4ncccc34)c(C#N)c1=O)C2 (centres unmarked) [Example 26],< 1000

# Same assay, conditions: SAM-TIR lysate 5 μg/mL, 2 h pre-incubation with compound, 5 μM NAD+, 2 hr room temperature; read-out: SARM1 IC50
row,SMILES,IC50 [nM]
1,C[C@@H]1CNC[C@H]1n1sc(Nc2c(Cl)ccc3ncccc23)c(C#N)c1=O [Example 44],< 1000
2,COCCN(C)C(=O)c1c(Nc2ccccc2C(F)(F)F)sn(-c2ccccc2)c1=O [Example 35],< 1000
3,N#Cc1c(Nc2ccccc2C(F)(F)F)sn(-c2cccc(C(N)=O)c2)c1=O [Example 6],< 1000
4,N#Cc1c(Nc2ccccc2C(F)(F)F)sn(-c2ccccc2)c1=O [Example 4],< 1000
5,CS(=O)(=O)N1CC[C@@H](n2sc(Nc3c(Cl)ccc4ncccc34)c(C#N)c2=O)C1 [Example 30],< 1000
6,CS(=O)(=O)N1CC2CCC(C1)C2n1sc(Nc2c(Cl)ccc3ncccc23)c(C#N)c1=O (centres unmarked) [Example 34],< 1000
7,N#Cc1c(Nc2ccccc2C(F)(F)F)sn([C@@H]2CCNC2)c1=O [Example 21],< 1000
8,N#Cc1c(Nc2ccccc2C(F)(F)F)sn(-c2cccc3[nH]ncc23)c1=O [Example 8],< 1000
9,O=C(c1c(Nc2c(Cl)cccc2Cl)sn(-c2ccccc2)c1=O)N1CCOCC1 [Example 38],< 1000
10,CC(=O)N1CCC(n2sc(Nc3ccccc3C(F)(F)F)c(C#N)c2=O)CC1 [Example 2],< 1000
11,N#Cc1c(Nc2ccccc2C(F)(F)F)sn(C2CCNCC2)c1=O [Example 19],< 1000
12,CN1CCC(n2sc(Nc3c(Cl)ccc4ncccc34)c(C#N)c2=O)CC1 [Example 1],< 1000
13,C[C@@H]1CNC[C@@H]1n1sc(Nc2ccccc2C(F)(F)F)c(C#N)c1=O [Example 3],< 1000
14,CC(C)(C)OC(=O)n1ncc2cc(-n3sc(Nc4ccccc4C(F)(F)F)c(C#N)c3=O)ccc21 [Example 29],< 1000
15,N#Cc1c(Nc2cccc3ncccc23)sn(-c2ccc3c(c2)OCCO3)c1=O [Example 25],< 1000
16,N#Cc1c(Nc2ccccc2C(F)(F)F)sn(-c2ccc3cn[nH]c3c2)c1=O [Example 53],< 1000
17,N#Cc1c(Nc2ccccc2C(F)(F)F)sn([C@H]2CCN(C(N)=O)C2)c1=O [Example 9],< 1000
18,N#Cc1c(Nc2ccccc2C(F)(F)F)sn([C@@H]2CNCC23CC3)c1=O [Example 27],< 1000
19,N#Cc1c(Nc2ccccc2C(F)(F)F)sn([C@@H]2CCN(C(N)=O)C2)c1=O [Example 10],< 1000
20,CS(=O)(=O)N1CC[C@H](n2sc(Nc3ccccc3C(F)(F)F)c(C#N)c2=O)C1 [Example 7],< 1000
21,N#Cc1c(Nc2ccccc2C(F)(F)F)sn(C2CCN(C(N)=O)CC2)c1=O [Example 14],< 1000
22,Cc1cnn(C)c1-n1sc(Nc2c(Cl)ccc3ncccc23)c(C#N)c1=O [Example 47],1000 to 5000
23,N#Cc1c(Nc2ccccc2C(F)(F)F)sn(C2CCOCC2)c1=O [Example 31],< 1000
24,CN1C[C@H](n2sc(Nc3c(Cl)ccc4ncccc34)c(C#N)c2=O)C2(CC2)C1 [Example 36],< 1000
25,CC(=O)N1CC[C@@H](n2sc(Nc3ccccc3C(F)(F)F)c(C#N)c2=O)C1 [Example 15],< 1000

row,SMILES,IC50 [nM]
1,N#Cc1c(Nc2ccccc2C(F)(F)F)sn(C2CNCC23CC3)c1=O (centres unmarked) [Example 24],< 1000
2,CC(=O)N1CC[C@H](n2sc(Nc3ccccc3C(F)(F)F)c(C#N)c2=O)C1 [Example 23],< 1000
3,N#Cc1c(Nc2c(Cl)ccc3ncccc23)sn([C@H]2CCNC2)c1=O [Example 48],> 5000
4,N#Cc1c(Nc2c(Cl)ccc3ncccc23)sn(C2CCNCC2)c1=O [Example 16],< 1000
5,N#Cc1c(Nc2ccccc2C(F)(F)F)sn(-c2ccc(-n3cccn3)cc2)c1=O [Example 51],< 1000
6,N#Cc1c(Nc2c(Cl)cccc2Cl)sn(-c2ccc(-n3cccn3)cc2)c1=O [Example 50],< 1000
7,N#Cc1c(Nc2ccccc2C(F)(F)F)sn([C@H]2CCNC2)c1=O [Example 5],< 1000
8,C[C@H]1CNCC[C@H]1n1sc(Nc2c(Cl)ccc3ncccc23)c(C#N)c1=O [Example 43],< 1000
9,O=C(c1c(Nc2ccccc2C(F)(F)F)sn(-c2ccccc2)c1=O)N1CCOCC1 [Example 39],< 1000
10,N#Cc1c(Nc2ccccc2C(F)(F)F)sn(-c2ccc3c(c2)OCCO3)c1=O [Example 52],< 1000
11,CN1CC[C@@H](n2sc(Nc3c(Cl)ccc4ncccc34)c(C#N)c2=O)C1 [Example 33],< 1000
12,CN1C[C@@H](n2sc(Nc3c(Cl)ccc4ncccc34)c(C#N)c2=O)C2(CC2)C1 [Example 41],< 1000
13,CN(c1ccccc1C(F)(F)F)c1sn([C@@H]2CNCC23CC3)c(=O)c1C#N [Example 49],> 5000
14,N#Cc1c(Nc2ccccc2C(F)(F)F)sn(-c2ccc3[nH]ncc3c2)c1=O [Example 11],< 1000
15,CS(=O)(=O)N1CCC(n2sc(Nc3ccccc3C(F)(F)F)c(C#N)c2=O)CC1 [Example 20],< 1000
16,CS(=O)(=O)N1CC[C@@H](n2sc(Nc3ccccc3C(F)(F)F)c(C#N)c2=O)C1 [Example 12],< 1000
17,N#Cc1c(Nc2c(Cl)ccc3ncccc23)sn([C@@H]2CCNC2)c1=O [Example 32],< 1000
18,N#Cc1c(Nc2c(Cl)ccc3ncccc23)sn(-c2ccn[nH]2)c1=O [Example 13],< 1000
19,C[C@@H]1CN(S(C)(=O)=O)C[C@H]1n1sc(Nc2c(Cl)ccc3ncccc23)c(C#N)c1=O [Example 28],< 1000
20,COc1cccc(OC)c1Nc1sn([C@@H]2CCNC2)c(=O)c1C(=O)N1CCOCC1 [Example 46],< 1000
21,CS(=O)(=O)N1CC2CCC1C2n1sc(Nc2c(Cl)ccc3ncccc23)c(C#N)c1=O (centres unmarked) [Example 42],< 1000
22,N#Cc1c(Nc2c(Cl)ccc3ncccc23)sn(C2C3CCC2CNC3)c1=O (centres unmarked) [Example 37],< 1000
23,CS(=O)(=O)N1CC[C@H](n2sc(Nc3c(Cl)ccc4ncccc34)c(C#N)c2=O)C1 [Example 22],< 1000
24,N#Cc1c(Nc2ccccc2C(F)(F)F)sn(-c2cccc(-c3cnco3)c2)c1=O [Example 18],< 1000
